Assay results as given in US9957278B2, “Furopyridine compounds for the treatment of hepatitis C” (BRISTOL-MYERS SQUIBB COMPANY, priority 2014, dated 2018).
Read-outs that look alike come from different tables or passages of the source.

System: genotype 1b (Con-1) HCV replicon
Test: HCV Replicon Luciferase Assay (genotype 1b)
Type: cell-based
Settings: Hepatitis C virus, 72 h, genotype 1b replicon in Huh-7 cells, Renilla luciferase, 3 days incubation
Method: The cell lines used to evaluate compounds consist of a human hepatocyte derived cell line (Huh-7) that constitutively expresses a genotype 1b (Con-1) HCV replicon or a genotype 1b (Con-1) HCV replicon with an asparagine replacing the cysteine at amino acid 316, or a genotype 2a (JFH-1) replicon, containing a Renilla luciferase reporter gene. These cells were maintained in Dulbecco's modified Eagle medium (DMEM) containing 10% FBS, 100 U/mL penicillin/streptomycin and 1.0 mg/mL G418.
To evaluate compound efficacy, titrated compounds were transferred to sterile 384-well tissue culture treated plates, and the plates were seeded with HCV replicon cells (50 μL at a density of 2.4×10^3 cells/well) in DMEM containing 4% FBS (final DMSO concentration at 0.5%). After 3 days incubation at 37° C., cells were analyzed for Renilla Luciferase activity using the EnduRen substrate (Promega cat #E6485) according to the manufacturer's directions. Briefly, the EnduRen substrate was diluted in DMEM and then added to the plates to a final concentration of 7.5 μM. The plates were incubated for at least 1 h at 37° C. then read on a Viewlux Imager (PerkinElmer) using a luminescence program. The 50% effective concentration (EC50) was calculated using the four-parameter logistic formula noted above.
Compound EC50 data is expressed as A: <100 nM; B=100-1000 nM; C>1000 nM).

Compound: CNC(=O)c1c(-c2ccc(F)cc2)oc2nc(CCC(F)(F)F)c(-c3cccc(C(=O)NC4CCOC4)c3)cc12 (stereo not shown) [Compound 20034]
- EC50 (read-out: EC50 1b (class)): < 0.1 µM
- EC50 (read-out: EC50 (uM) 1b): 0.0118 µM

Compound: CNC(=O)c1c(-c2ccc(F)cc2)oc2nc(NCC(F)(F)F)c(-c3cccc(C(=O)NC(CF)(CF)CF)c3)cc12 [Compound 30001]
- EC50 (read-out: EC50 1b (class)): < 0.1 µM

Compound: CNC(=O)c1c(-c2ccc(F)cc2)oc2nc(NCC(F)(F)F)c(-c3cccc(C(=O)NC(C)C(F)(F)F)c3)cc12 (stereo not shown) [Compound 30004]
- EC50 (read-out: EC50 1b (class)): < 0.1 µM

Compound: CNC(=O)c1c(-c2ccc(F)cc2)oc2nc(CCC(F)(F)F)c(-c3cccc(C(=O)NCC(C)(C)CO)c3)cc12 [Compound 20026]
- EC50 (read-out: EC50 1b (class)): < 0.1 µM
- EC50 (read-out: EC50 (uM) 1b): 0.0043 µM

Compound: CNC(=O)c1c(-c2ccc(F)cc2)oc2nc(CCC(F)(F)F)c(-c3cccc(C(=O)NCC(F)(F)F)c3)cc12 [Compound 20019]
- EC50 (read-out: EC50 1b (class)): < 0.1 µM

Compound: CNC(=O)c1c(-c2ccc(F)cc2)oc2nc(CCC(F)(F)F)c(-c3cccc(C(=O)NC(C)(C)C(F)(F)F)c3)cc12 [Compound 20001]
- EC50 (read-out: EC50 1b (class)): < 0.1 µM
- EC50 (read-out: EC50 (uM) 1b): 0.0063 µM

Compound: CNC(=O)c1c(-c2ccc(F)cc2)oc2nc(CCC(F)(F)F)c(-c3cccc(C(=O)NCC(C)(C)COC)c3)cc12 [Compound 20033]
- EC50 (read-out: EC50 1b (class)): < 0.1 µM

Compound: CNC(=O)c1c(-c2ccc(F)cc2)oc2nc(CCC(F)(F)F)c(-c3cccc(C(=O)NCC(F)(F)C(F)(F)F)c3)cc12 [Compound 20022]
- EC50 (read-out: EC50 1b (class)): < 0.1 µM
- EC50 (read-out: EC50 (uM) 1b): 0.0059 µM

Compound: CNC(=O)c1c(-c2ccc(F)cc2)oc2nc(NCC(F)(F)F)c(-c3cccc(C(=O)NC(C)(C)C(=O)OC)c3)cc12 [Compound 30009]
- EC50 (read-out: EC50 1b (class)): < 0.1 µM

Compound: CCC(NC(=O)c1cccc(-c2cc3c(C(=O)NC)c(-c4ccc(F)cc4)oc3nc2CCC(F)(F)F)c1)C(F)(F)F (stereo not shown) [Compound 20005]
- EC50 (read-out: EC50 1b (class)): < 0.1 µM

Compound: CNC(=O)c1c(-c2ccc(F)cc2)oc2nc(NCC(F)(F)F)c(-c3cccc(C(=O)N[C@@H](CO)c4ccccc4)c3)cc12 [Compound 30012]
- EC50 (read-out: EC50 1b (class)): < 0.1 µM
- EC50 (read-out: EC50 (uM) 1b): 0.0239 µM

Compound: CNC(=O)c1c(-c2ccc(F)cc2)oc2nc(Cl)c(-c3cccc(C(=O)NC(CF)(CF)CF)c3)cc12 [Compound 11001]
- EC50 (read-out: EC50 1b (class)): 0.1 to 1 µM

Compound: CNC(=O)c1c(-c2ccc(F)cc2)oc2nc(CCC(F)(F)F)c(-c3cccc(C(=O)NC(C)(C)CF)c3)cc12 [Compound 20025]
- EC50 (read-out: EC50 1b (class)): < 0.1 µM

Compound: CNC(=O)c1c(-c2ccc(F)cc2)oc2nc(CCC(F)(F)F)c(-c3cccc(C(=O)N4CC5(CCC5C(=O)OC)C4)c3)cc12 (stereo not shown) [Compound 20018]
- EC50 (read-out: EC50 1b (class)): 0.1 to 1 µM
- EC50 (read-out: EC50 (uM) 1b): 0.11 µM

Compound: CNC(=O)c1c(-c2ccc(F)cc2)oc2nc(NCC(F)(F)F)c(-c3cccc(C(=O)NC(C)(C)C(F)(F)F)c3)cc12 [Compound 30006]
- EC50 (read-out: EC50 1b (class)): < 0.1 µM
- EC50 (read-out: EC50 (uM) 1b): 0.0053 µM

Compound: CNC(=O)c1c(-c2ccc(F)cc2)oc2nc(CCC(F)(F)F)c(-c3cccc(C(=O)NC(COC)C4CC4)c3)cc12 (stereo not shown) [Compound 20016]
- EC50 (read-out: EC50 1b (class)): < 0.1 µM
- EC50 (read-out: EC50 (uM) 1b): 0.0217 µM

Compound: CNC(=O)c1c(-c2ccc(F)cc2)oc2nc(Cl)c(-c3ccc(OC)c(C(=O)NC(CF)(CF)CF)c3)cc12 [Compound 10003]
- EC50 (read-out: EC50 1b (class)): 0.1 to 1 µM

Compound: CNC(=O)c1c(-c2ccc(F)cc2)oc2nc(NCCO)c(-c3cccc(C(=O)NC(CF)(CF)CF)c3)cc12 [Compound 42002]
- EC50 (read-out: EC50 1b (class)): < 0.1 µM

Compound: [2H]C([2H])([2H])C(NC(=O)c1cccc(-c2cc3c(C(=O)NC)c(-c4ccc(F)cc4)oc3nc2NCCO)c1)(C([2H])([2H])[2H])C([2H])([2H])[2H] [Compound 42003]
- EC50 (read-out: EC50 1b (class)): < 0.1 µM
- EC50 (read-out: EC50 (uM) 1b): 0.0144 µM

Compound: [2H]C([2H])([2H])C(NC(=O)c1cc(-c2cc3c(C(=O)NC)c(-c4ccc(F)cc4)oc3nc2NCC(F)(F)C(F)(F)F)ccc1OC)(C([2H])([2H])[2H])C([2H])([2H])[2H] [Compound 41005]
- EC50 (read-out: EC50 1b (class)): < 0.1 µM

Compound: CNC(=O)c1c(-c2ccc(F)cc2)oc2nc(NCC(F)(F)C(F)(F)F)c(-c3ccc(OC)c(C(=O)NCC(C)(C)C)c3)cc12 [Compound 41002]
- EC50 (read-out: EC50 1b (class)): < 0.1 µM

Compound: CNC(=O)c1c(-c2ccc(F)cc2)oc2nc(CCC(F)(F)F)c(-c3cccc(C(=O)NC(CF)(CF)CF)c3)cc12 [Compound 20002]
- EC50 (read-out: EC50 1b (class)): < 0.1 µM
